Data from US20230225991A1, “COMPOUNDS FOR USE IN THE TREATMENT OF ACUTE INTERMITTENT PORPHYRIA” (VESTLANDETS INNOVASJONSSELSKAP AS, priority 2019, published 2023).
Marks after values point to notes of the source that are not given here.

Assays:
WT-HMBS [1] = biological target: T1, WT-HMBS (Homo sapiens, UniProt P08397); assay: Steady-state enzyme kinetics of HMBS (KM, Vmax); format: biochemical; settings: for Effect on steady-state enzyme kinetics of HMBS: 84 μM compound; for Vmax: variable PBG (0-1 mM), 37° C.
T1 construct: Full-length HMBS was cloned into pET-28a(+)-TEV vector and transformed into BL21 (DE3) cells for expression; 6xHis (N, cleaved yes); TEV protease cleavage site (N, cleaved yes); made in house; host or cells: E. coli BL21 (DE3)
T1 sequence (P08397 1-361): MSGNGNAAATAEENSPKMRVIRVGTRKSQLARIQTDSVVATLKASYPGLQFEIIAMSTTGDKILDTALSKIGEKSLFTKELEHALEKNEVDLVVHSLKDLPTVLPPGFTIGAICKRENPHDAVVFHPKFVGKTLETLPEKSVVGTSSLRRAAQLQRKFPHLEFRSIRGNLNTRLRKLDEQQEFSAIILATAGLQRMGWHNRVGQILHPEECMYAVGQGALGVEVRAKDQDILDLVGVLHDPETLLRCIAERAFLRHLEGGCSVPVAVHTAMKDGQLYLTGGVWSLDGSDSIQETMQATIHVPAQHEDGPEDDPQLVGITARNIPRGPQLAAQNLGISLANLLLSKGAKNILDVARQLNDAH
Procedure: The effect of the compounds on the stability of HMBS activity was assayed by pre-incubating the HMBS (4-5 μg) in 50 mM HEPES pH 8.2, 84 μM compound and 2% DMSO for 20 min at 70° C., and then placed on ice for 5 min. The enzymatic activity at 37° C. was subsequently measured as reported previously (Bustad et al., Bioscience reports 2013; 3 3(4)). Controls without compound but with equal concentration of DMSO were included. The remaining activity in the presence of compounds was normalized relative to DMSO-control (relative activity). […] USA, www.graphpad.com.
(§1) Limited tryptic proteolysis was also applied to compound BG-1. Proteolysis of WT-HMBS provided three major bands with relative content 34.5±0.3%, 14.7±0.8% and 50.9±0.5%, corresponding to remaining full-length HMBS (˜42.5 kDa), and two fragments of ˜41.0 kDa and ˜31.5 kDa, respectively (FIG. 1). […] The effect of this compound at 84 μM on the steady-state enzyme kinetics of HMBS was then calculated (Table 2).

WT-HMBS [2] = biological target: T1, WT-HMBS; assay: Limited proteolysis by trypsin; format: biochemical; settings: 84 μM compound; for Protection against tryptic proteolysis: 2% DMSO
Procedure: Limited proteolysis by trypsin was performed at 37° C. in 20 mM HEPES, 150 mM NaCl, 2% DMSO, pH 8.2, with 0.15 μg/μl HMBS in the absence (DMSO-control) or presence of 84 μM compound and 2% DMSO. The proteolysis was initiated by adding 1 μg/ml TPCK-treated trypsin (Sigma-Aldrich). After 30 min, aliquots were removed and transferred to Laemmli loading buffer containing 2 μg/ml soybean trypsin inhibitor. Samples resolved by electrophoresis with 10% Mini-Protean® TGX™ gels (Bio-Rad Laboratories, Inc.) were analyzed using the Image Lab™ software (Bio-Rad Laboratories, Inc.). The unpaired t-test (two tailed) was performed using GraphPad Prism.
as §1

WT-HMBS [3] = biological target: T1, WT-HMBS; assay: DSF thermal upshift (ΔTm) of HMBS; format: binding
Procedure: Compounds BG-2, BG-3 and BG-4 were tested on recombinant WT-HMBS using DSF and tryptic proteolysis.

[4] = test system: Hmbs-deficient T1/T2−/− mice; assay: Mouse trial T1/T2-B, phenobarbital-induced biochemical acute attack; format: in vivo; settings: 20 mg/kg/day, 12 days; for Hepatic HMBS enzyme activity in liver homogenates: compared with control group; for Urinary ALA and PBG excretion: versus control group; for Increase in steady-state levels of HMBS in liver tissue: quantitative western immunoblotting
Procedure: The crude liver homogenates were passed through Zeba spin desalting columns (Thermo Fisher Scientific) to remove small molecules <2000 Da. 50 mM HEPES pH 8.2 was used as equilibration buffer. 25 μl filtrated homogenate (400-500 μg total protein) was added to 110 μl sample mix (50 mM HEPES, pH 8.2, 1% Triton™ X-100) and incubated for 10 min at 37° C. before adding PBG (1 mM). The reaction was stopped after 1 h by adding ice-cooled 100% TCA to a final concentration of 25%, incubated at room temperature (RT) for 10 min and centrifuged at 10,000 g for 10 min. The absorption was measured in the supernatant at A409 with baseline correction at A380 using NanoDrop™ 2000c spectrophotometer (Thermo Fisher Scientific). The activity of HMBS was expressed as relative activity in the compound-treated […] compared to DMSO-controls. A blank sample was prepared for each homogenate. The unpaired t-test (two tailed) was performed using GraphPad Prism.
Liver homogenates (5 μg total protein/lane) were loaded onto 10% Mini-Protean® TGX™ gels (Bio-Rad) and separated with Tris/Glycine/SDS electrophoresis buffer (Bio-Rad). Trans-Blot® Turbo™ Transfer Starter System (Bio-Rad) was used to transfer the proteins onto Immun-Blot® low fluorescence PVDF membranes (Bio-Rad). The membranes were then blocked with TBS containing 1% Tween® 20 (1% TBS-T) and 3% BSA for 1 h. HMBS was probed with 1:2,000 monoclonal mouse anti-HMBS (H-11, Santa Cruz Biotechnology), together with 1:1,000 rabbit anti-actin (Sigma-Aldrich), in 1% TBS-T, 3% BSA overnight, 4° C. Alexa Fluor 647 conjugated donkey-anti-mouse and Alexa Fluor 488 conjugated donkey-anti-rabbit (both Thermo Fisher Scientific) were used as secondary antibodies and incubated in 1:1,000 dilutions in 0.1% TBS-T for 1 h. Each step was followed by extensive wash with 0.1% TBS-T. Fluorescence detection was performed using G-Box Chemi-XRQ (Syngene Synoptics, Cambridge, UK) with filters UV06 and 705 nm for AF-488 and AF-647, respectively, and the band intensities of HMBS relative to the loading control (actin) were determined using ImageJ (Schneider et al., Nature methods 2012; 9(7): 671-5).

Compound | Effect on steady-state enzyme kinetics of HMBS (WT-HMBS [1]) | Vmax (WT-HMBS [1]; 84 μM compound in 2% DMSO, DMSO control 61 ± 2) | Protection against tryptic proteolysis (WT-HMBS [2]; remaining full-length HMBS relative to DMSO) | Protection against proteolysis (WT-HMBS [2]; limited tryptic proteolysis) | ΔTm at 122 µM (WT-HMBS [3]; thermal upshift at y = 0.5 in scaled fluorescence curves, average compound concentration 122 μM (2% DMSO)) | Hepatic HMBS enzyme activity in liver homogenates [4] | Urinary ALA and PBG excretion [4] | Relative concentration of ALA in liver ([4]; p<0.05 compared with control mice) | Relative concentration of PBG in liver ([4]; p=0.053 compared with control mice) | Increase in steady-state levels of HMBS in liver tissue [4] | Vmax (WT-HMBS [1]; Table 3, 84 μM compound with 2% DMSO, control 61 ± 2) | Protection against tryptic proteolysis (WT-HMBS [2]; Table 3) | ΔTm at 122 µM (WT-HMBS [3]; Table 3, average compound concentration 122 μM (2% DMSO))
O=Cc1cc(Cc2ccccc2Cl)cc([N+](=O)[O-])c1O [BG-1] | reduction in both KM and Vmax | 56 ± 1 nmol/min/mg | ++** (++, 10% remaining full-length HMBS relative to DMSO.) | exhibited protection against proteolysis | 1.6 °C | significantly increased enzyme activity | reduced | decreased | decreased | 2 fold |  |  | 
O=C(c1ccccc1)c1ccc(Cl)c([N+](=O)[O-])c1 [BG-2] | weak mixed inhibitory effect |  |  |  |  | significantly increased enzyme activity | reduced |  |  | 2 fold | 54 ± 2 nmol/min/mg | +* (+, >4%) | 4.9 °C
